Values quoted from earlier work, collected in US20040151761A1, “Methods and compositions utilizing astaxanthin” (priority 2003, published 2004).

What was measured:
[1] = system: chemical-induced carcinogenesis; details: mice; cited from earlier work
lymphocyte = details: rats; cited from earlier work
[2] = system: tumor necrosis factor (TNF); details: hamsters; cited from earlier work
IgG = details: dogs, 20 mg; cited from earlier work
human neuroblastoma cell = details: cited from earlier work
mouse splenocytes = details: cultured cell assay (Jyonouchi et al.); cited from earlier work
[3] = cited from earlier work

SMILES | chemical-induced carcinogenesis [1] | lymphocyte proliferation (lymphocyte) | production of tumor necrosis factor (TNF) by macrophages [2] | plasma IgG concentration versus un-supplemented animals (IgG) | human neuroblastoma cell proliferation (human neuroblastoma cell) | in vitro antibody response of mouse splenocytes to T-dependent antigens (mouse splenocytes) | conversion of beta-carotene to vitamin A ([3]; cats (Schweigert et al. 2002)) | absorption of beta-carotene ([3]; domestic cats (Chew et al. 2000))
CC1=C(/C=C/C(C)=C/C=C/C(C)=C/C=C/C=C(C)/C=C/C=C(C)/C=C/C2=C(C)C(=O)CCC2(C)C)C(C)(C)CCC1=O [canthaxanthin] | prevent chemical-induced carcinogenesis | increases lymphocyte proliferation | enhances the production of tumor necrosis factor (TNF) |  |  |  |  | 
CC1=C[C@H](O)CC(C)(C)[C@H]1/C=C/C(C)=C/C=C/C(C)=C/C=C/C=C(C)/C=C/C=C(C)/C=C/C1=C(C)C[C@@H](O)CC1(C)C [lutein] |  |  |  | higher concentrations of plasma IgG than un-supplemented animals |  |  |  | 
CC1=C(/C=C/C(C)=C/C=C/C(C)=C/C=C/C=C(C)/C=C/C=C(C)/C=C/C2=C(C)CCCC2(C)C)C(C)(C)CCC1 [beta-carotene] |  |  |  | higher concentrations of plasma IgG than un-supplemented animals | inhibit human neuroblastoma cell proliferation | increase in vitro antibody response | not accompanied by conversion of beta-carotene to vitamin A | readily absorb beta-carotene
